Earlier results, collected in patent publication US8598236B2, “Emulsion system derived from engkabang fat esters” (Universiti Putra Malaysia, priority 2009, dated 2013).

conditions: purchased nonionic surfactants

Substance | HLB value
Sorbitan mono-oleate [Span80] | 4.3
polyoxyethylene (20) sorbitan tri-oleate [Tween85] | 11.0
sorbitan monolaurate [Span20] | 8.6
